Results on three compounds are retold here after ChEMBL document CHEMBL1201862, “PubChem BioAssay data set” (2004).

The EC50 is the midpoint of the concentration-response curve. In general, AC50 refers to the concentration giving half of the maximal activity seen. The IC50 is the concentration that gives 50% inhibition.

Experiment [1] has as its target Sphingosine 1-phosphate receptor 4 (Homo sapiens, UniProt O95977). Description: potency of S1P4 activators – cell-based, fluorescence, synthesized compounds, late-stage follow-up (AID 463107). Type of experiment: functional.
Experiment [2] addresses Voltage-dependent T-type calcium channel subunit alpha-1H (Homo sapiens, UniProt O95180). Description: human CACNA1H calcium influx blockade – cell-based, synthetic library set 1, calcium flux (AID 493022). Format: functional.
A short description of experiment [3]: viability of HCT116 lacking mutant beta-catenin – cell-based, human colon tumor, dose response (AID 1045).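 Note: HCT116 colon tumor cells with beta catenin knocked out; cells exposed to compound for 60 hours.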 Format: functional.
Another experiment deals with Paired box protein Pax-8 (Homo sapiens, UniProt Q06710). Nature of the experiment: PAX8 transcriptional activity inhibition in RMG-I – RMG-I cells, luciferase, cherry-pick, dose response (AID 687027).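 Note: luciferase reporter driven by Pax8 target thyroperoxidase promoter measured by SteadyGlo luminescence.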 Type of experiment: functional, cell-based.
Experiment [4] is described as follows: DRD fibroblast viability loss – cell-based, non-viral oncogenic, luminescence, dose response (AID 1934). Type of experiment: functional. Conditions: Homo sapiens.
For experiment [5], the target named is Glutathione S-transferase omega-1 (Homo sapiens, UniProt P78417). Description: IC50 of human GSTO1 inhibition by gel ABPP – biochemical, SE-Rh probe, in-gel fluorescence, powder samples, late-stage follow-up (AID 463081). Type of experiment: functional.
In the next experiment the target is T1, Protein RecA (Mycobacterium tuberculosis, UniProt P9WHJ3).
T1 sequence (P9WHJ3 whole entry): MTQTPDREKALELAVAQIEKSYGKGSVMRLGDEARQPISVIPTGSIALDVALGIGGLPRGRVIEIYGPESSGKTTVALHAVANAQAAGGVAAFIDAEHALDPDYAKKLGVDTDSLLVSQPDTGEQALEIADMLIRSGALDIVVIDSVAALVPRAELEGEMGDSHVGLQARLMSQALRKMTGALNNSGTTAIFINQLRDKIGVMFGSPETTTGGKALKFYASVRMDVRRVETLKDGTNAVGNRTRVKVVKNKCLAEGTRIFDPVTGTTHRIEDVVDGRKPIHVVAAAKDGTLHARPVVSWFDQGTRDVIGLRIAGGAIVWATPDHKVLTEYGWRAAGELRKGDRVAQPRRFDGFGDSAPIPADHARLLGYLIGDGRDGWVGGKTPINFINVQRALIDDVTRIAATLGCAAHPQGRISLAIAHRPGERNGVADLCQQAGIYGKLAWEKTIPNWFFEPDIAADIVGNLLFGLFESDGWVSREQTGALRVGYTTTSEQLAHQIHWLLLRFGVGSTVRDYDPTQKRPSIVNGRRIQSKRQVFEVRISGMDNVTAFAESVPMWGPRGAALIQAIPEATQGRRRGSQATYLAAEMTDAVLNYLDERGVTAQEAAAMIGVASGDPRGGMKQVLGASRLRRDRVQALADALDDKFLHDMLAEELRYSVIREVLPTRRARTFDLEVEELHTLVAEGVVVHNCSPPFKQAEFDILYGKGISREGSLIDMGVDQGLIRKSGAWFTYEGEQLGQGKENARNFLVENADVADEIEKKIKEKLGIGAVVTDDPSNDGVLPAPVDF
Description: Fluorescence Cell-Free Homogeneous Dose Retest to Identify Inhibitors of RecA-Intein Splicing Activity. [Related pubchem assays (depositor defined):AID2097, AID2223, AID489010, AID492950]. Type of experiment: functional.

Experiment [6] deals with T2, Heat shock factor protein 1 (Mus musculus, UniProt P38532).
T2 sequence (P38532 whole entry): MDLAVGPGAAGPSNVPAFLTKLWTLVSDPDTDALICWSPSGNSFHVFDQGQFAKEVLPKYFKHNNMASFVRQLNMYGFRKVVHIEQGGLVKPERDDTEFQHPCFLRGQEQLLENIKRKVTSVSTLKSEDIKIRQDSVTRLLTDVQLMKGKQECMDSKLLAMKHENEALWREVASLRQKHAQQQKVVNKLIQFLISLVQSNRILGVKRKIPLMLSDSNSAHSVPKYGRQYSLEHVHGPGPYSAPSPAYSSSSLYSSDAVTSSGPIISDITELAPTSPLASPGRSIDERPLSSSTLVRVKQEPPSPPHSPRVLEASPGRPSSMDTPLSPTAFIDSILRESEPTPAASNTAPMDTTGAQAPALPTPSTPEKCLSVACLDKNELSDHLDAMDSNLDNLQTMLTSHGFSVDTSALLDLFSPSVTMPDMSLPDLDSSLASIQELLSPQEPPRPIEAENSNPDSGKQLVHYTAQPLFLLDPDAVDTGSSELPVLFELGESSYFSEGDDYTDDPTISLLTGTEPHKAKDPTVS
Nature of the experiment: decrease of HSF1-responsive luciferase luminescence – cell-based, NIH3T3, dose retest, confirmation (AID 2382).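 Note: NIH3T3 fibroblasts with HSF1-driven luciferase reporter stressed by proteasome inhibitor MG132; luminescence from HSF1-driven luciferase expression after 8 hours of MG132 stress.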 Type of experiment: functional.

The test system of experiment [7] is BJ. Nature of the experiment: cells. Type of experiment: functional, cell-based. Conditions: Homo sapiens.
For experiment [8], the system named is BJ. Nature of the experiment: BJ-TERT-LT-ST fibroblast viability loss – cell-based, RAS-independent, luminescence, dose response (AID 1935).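 Note: BJ fibroblasts immortalized with TERT plus LT and ST oncogenes.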 Format: functional. Conditions: Homo sapiens.
Experiment [9] relates to BJ. Description: growth inhibition of engineered Ras-driven BJ cells – cell-based, alamar blue fluorescence, cherrypicked samples, dose response (AID 2631).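 Note: confirmatory dose-response assay in RAS-dependent BJ fibroblasts engineered with TERT, LT and ST, with cytotoxicity read by fluorescence.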 Format: functional. Conditions: Homo sapiens. A general note: Resazurin is reduced to fluorescent resorufin, in cell work by metabolically active cells.
Experiment [10] concerns BJ. Description: BJ-TERT fibroblast viability loss – cell-based, RAS-independent, luminescence, dose response (AID 1933). Format: functional. Conditions: Homo sapiens.
Experiment [11] can be described thus: general cell-killing toxicity readout – plate reader, dry powder samples, cytotoxicity control for PAX8 inhibitor project, dose response (AID 743021). Format: functional, cell-based.
Experiment [12] in a line: viability of PTEN-deleted HCT116 cells – cell-based, HCT116 PTEN knockout, dose response (AID 1047).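 Note: HCT116 colon tumor cells with PTEN knocked out; cells exposed to compound for 60 hours before readout; potency for loss of cell viability measured by luminescence.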 Format: functional.

Active and inactive are the calls of the source. Bounds are passed on as bounds.

Chain of Voltage-dependent T-type calcium channel subunit alpha-1H (O95180 whole entry): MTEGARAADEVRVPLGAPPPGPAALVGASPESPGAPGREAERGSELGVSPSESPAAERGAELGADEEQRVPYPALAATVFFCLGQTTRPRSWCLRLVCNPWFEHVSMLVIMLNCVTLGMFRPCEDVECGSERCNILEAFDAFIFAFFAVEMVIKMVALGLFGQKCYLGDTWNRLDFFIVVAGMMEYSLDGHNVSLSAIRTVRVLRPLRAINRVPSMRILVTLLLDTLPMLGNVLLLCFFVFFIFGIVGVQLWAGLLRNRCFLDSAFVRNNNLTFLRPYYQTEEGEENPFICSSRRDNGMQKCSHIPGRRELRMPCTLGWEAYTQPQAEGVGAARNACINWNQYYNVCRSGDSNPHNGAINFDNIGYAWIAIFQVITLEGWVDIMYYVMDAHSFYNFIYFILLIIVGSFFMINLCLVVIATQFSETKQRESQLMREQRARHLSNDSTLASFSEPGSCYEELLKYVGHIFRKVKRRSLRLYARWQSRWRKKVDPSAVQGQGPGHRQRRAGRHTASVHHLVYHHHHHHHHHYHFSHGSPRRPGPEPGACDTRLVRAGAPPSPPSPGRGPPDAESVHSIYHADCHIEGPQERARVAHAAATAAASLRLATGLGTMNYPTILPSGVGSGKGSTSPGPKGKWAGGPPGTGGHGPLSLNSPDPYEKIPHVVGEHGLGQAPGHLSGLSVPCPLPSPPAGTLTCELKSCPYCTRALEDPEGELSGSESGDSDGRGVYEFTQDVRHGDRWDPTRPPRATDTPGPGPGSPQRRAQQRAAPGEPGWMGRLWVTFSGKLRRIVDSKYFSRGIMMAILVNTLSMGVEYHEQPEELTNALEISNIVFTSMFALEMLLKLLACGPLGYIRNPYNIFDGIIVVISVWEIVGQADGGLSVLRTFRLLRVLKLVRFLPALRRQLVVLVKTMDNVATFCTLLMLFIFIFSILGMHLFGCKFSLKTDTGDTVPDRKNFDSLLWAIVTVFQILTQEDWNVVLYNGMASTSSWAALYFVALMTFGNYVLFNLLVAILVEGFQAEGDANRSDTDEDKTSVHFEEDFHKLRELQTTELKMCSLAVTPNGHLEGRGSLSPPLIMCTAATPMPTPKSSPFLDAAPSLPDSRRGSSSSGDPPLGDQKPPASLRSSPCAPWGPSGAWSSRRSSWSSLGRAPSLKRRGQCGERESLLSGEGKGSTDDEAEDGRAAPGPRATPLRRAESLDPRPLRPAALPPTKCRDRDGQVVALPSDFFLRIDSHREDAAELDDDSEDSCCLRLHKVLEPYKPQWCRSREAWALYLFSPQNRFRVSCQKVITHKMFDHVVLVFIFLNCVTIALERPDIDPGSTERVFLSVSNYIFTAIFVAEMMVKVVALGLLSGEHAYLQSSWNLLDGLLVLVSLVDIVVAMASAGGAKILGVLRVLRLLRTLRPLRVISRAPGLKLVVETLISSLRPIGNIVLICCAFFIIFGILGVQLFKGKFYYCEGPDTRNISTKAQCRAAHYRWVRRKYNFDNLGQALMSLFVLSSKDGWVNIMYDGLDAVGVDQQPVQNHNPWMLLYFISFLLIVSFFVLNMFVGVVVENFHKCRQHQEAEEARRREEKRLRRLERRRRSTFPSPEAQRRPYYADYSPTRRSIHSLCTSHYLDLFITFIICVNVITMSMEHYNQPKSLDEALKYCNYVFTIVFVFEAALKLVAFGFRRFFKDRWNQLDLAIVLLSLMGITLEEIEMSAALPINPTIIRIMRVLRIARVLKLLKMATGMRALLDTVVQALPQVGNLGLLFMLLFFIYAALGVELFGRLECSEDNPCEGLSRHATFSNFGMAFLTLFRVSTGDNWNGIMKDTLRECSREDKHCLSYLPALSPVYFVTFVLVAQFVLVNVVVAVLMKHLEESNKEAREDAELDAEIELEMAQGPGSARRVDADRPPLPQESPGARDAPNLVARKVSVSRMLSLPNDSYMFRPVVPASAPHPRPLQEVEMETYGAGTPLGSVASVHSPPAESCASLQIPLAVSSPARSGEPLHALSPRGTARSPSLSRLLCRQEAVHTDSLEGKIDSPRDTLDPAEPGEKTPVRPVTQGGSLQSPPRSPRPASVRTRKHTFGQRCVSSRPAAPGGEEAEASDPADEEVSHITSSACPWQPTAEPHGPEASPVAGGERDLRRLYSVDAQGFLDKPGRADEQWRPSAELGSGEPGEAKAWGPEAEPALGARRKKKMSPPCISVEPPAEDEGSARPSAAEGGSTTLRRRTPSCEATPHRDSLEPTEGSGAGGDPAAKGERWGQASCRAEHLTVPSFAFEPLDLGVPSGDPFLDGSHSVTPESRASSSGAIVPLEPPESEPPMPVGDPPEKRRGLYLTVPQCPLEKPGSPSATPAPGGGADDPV
Chain of Sphingosine 1-phosphate receptor 4 (O95977 whole entry): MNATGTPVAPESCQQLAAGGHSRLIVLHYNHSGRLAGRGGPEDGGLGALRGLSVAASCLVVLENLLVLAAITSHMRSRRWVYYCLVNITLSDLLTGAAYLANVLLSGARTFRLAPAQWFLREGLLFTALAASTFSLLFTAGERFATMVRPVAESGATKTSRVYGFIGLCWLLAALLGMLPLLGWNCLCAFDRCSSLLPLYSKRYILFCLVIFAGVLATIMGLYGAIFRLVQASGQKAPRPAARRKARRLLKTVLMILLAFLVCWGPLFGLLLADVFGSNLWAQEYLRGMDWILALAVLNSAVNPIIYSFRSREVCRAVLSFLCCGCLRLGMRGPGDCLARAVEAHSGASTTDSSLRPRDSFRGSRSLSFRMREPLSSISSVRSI
Chain of Glutathione S-transferase omega-1 (P78417 whole entry): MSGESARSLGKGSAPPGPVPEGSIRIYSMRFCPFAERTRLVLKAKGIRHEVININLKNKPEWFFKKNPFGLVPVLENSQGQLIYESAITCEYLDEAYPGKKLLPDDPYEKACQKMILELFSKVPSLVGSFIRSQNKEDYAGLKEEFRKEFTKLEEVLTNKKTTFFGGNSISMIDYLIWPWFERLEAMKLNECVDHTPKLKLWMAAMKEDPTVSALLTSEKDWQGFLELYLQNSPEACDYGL
Chain of Paired box protein Pax-8 (Q06710 whole entry): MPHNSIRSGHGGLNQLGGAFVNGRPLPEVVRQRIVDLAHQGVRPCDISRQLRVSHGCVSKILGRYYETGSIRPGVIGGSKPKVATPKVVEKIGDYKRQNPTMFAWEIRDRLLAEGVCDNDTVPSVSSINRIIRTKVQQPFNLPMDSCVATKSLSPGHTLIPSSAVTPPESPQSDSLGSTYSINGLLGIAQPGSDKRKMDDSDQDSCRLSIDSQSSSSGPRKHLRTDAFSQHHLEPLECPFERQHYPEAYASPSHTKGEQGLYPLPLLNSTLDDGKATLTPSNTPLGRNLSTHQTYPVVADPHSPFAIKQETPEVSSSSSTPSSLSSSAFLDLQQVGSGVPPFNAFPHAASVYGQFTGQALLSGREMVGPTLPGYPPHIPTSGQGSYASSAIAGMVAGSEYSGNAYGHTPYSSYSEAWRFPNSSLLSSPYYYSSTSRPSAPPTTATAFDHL

For the compound `Cc1ccc(OCCc2ccc(Cl)cc2Cl)c([N+](=O)[O-])n1`, in [1], the concentration for a half-maximal effect (EC50) was 2100 nM (active).
As to `O=C(COc1ccccc1Cl)Nc1nnc(-c2ccc3c(c2)CCCC3)o1`, the concentration for a half-maximal effect (EC50) in experiment [2] is 10000 nM (active).
On to `COc1ccc(C(C(=O)NC2CCCCC2)N(C(=O)CCl)c2cccc(Cl)c2)cc1` (centres undefined), for which the EC50 in [3] is 1090 nM (active); in experiment [4], 518 nM (active); at Protein RecA it was 202 nM (active); in experiment [6], 691 nM (active); in the experiment with BJ [7] it was 987 nM (inconclusive); with BJ [8], 4570 nM (active). The concentration for a half-maximal effect (EC50) with BJ [9] is 122 nM (active); in the experiment on BJ [10], 176 nM (inconclusive); in experiment [12], 1360 nM (active). Further, the figures for the AC50 (at Paired box protein Pax-8; in experiment [11]) were < 500 nM (active) and 1020 nM (active), respectively. The IC50 in [5] is 32 nM (active).
